Laboratory results published in ChEMBL document CHEMBL4339230, “X-ray Crystallography Deciphers the Activity of Broad-Spectrum Boronic Acid β-Lactamase Inhibitors” (ACS Med Chem Lett, 2019).

Key:
[1] = Competitive inhibition of recombinant GES-5 expressed in Escherichia coli BL21(DE3) using nitrocefin substrate by spectrophotometry
[2] = Inhibition of Pseudomonas aeruginosa AmpC expressed in Escherichia coli BL21(DE3) using cephalothin as reporter substrate incubated for 300 secs by spectrophotometric assay
[3] = Inhibition of bacterial OXA-24 using cephalothin as reporter substrate incubated for 300 secs by spectrophotometric assay; set-up: species or system Bacteria
[4] = Inhibition of Klebsiella pneumoniae KPC2 using cephalothin as reporter substrate incubated for 300 secs by spectrophotometric assay
[5] = Inhibition of bacterial NDM1 using cephalothin as reporter substrate incubated for 300 secs by spectrophotometric assay; set-up: species or system Bacteria

Row | Ki [3] | Ki [4] | Ki [5] | SMILES | Ki [1] | Ki [2]
1 | 96 µM | 4.4 µM | 5.5 µM | NCc1ccc2sc(B(O)O)cc2c1 | 15 µM | 0.05 µM
2 | 67 µM | 2.8 µM | 5.9 µM | OB(O)c1cc2cc(CBr)ccc2s1 | 8.9 µM | 0.07 µM
3 | 16 µM | 4.9 µM | 3 µM | O=C(O)c1cccc2cc(B(O)O)sc12 | 0.16 µM | 0.42 µM

Further lines, the compound ahead of its results:

Row | SMILES | Ki [3] | Ki [4] | Ki [5] | Ki [1] | Ki [2]
4 | O=CN(C=O)Cc1ccc2sc(B(O)O)cc2c1 | – | – | – | 24 µM | 0.04 µM
5 | CC(C)(C)OC(=O)c1cccc2cc(B(O)O)sc12 | 27 µM | 3.2 µM | 3.2 µM | 17 µM | 1.3 µM
6 | CC(C)(C)OC(=O)Nc1cccc2cc(B(O)O)sc12 | 64 µM | 1.4 µM | 11 µM | 5.7 µM | 1.4 µM
